Reference: PMC12892976, “Alkylation-based optimization of antifungal FPPS inhibitors yields a potent, broad-spectrum lipophilic zoledronate derivative” (mBio, 2025)
≈ marks a conversion by molar mass, not a printed value.

What was measured:
Type in all cases: cell-based
Saccharomyces cerevisiae [1] = assay: MIC/MFC broth microdilution (CLSI); details: Saccharomyces cerevisiae S288c
Protocol: (§1) Antifungal susceptibility was determined by broth microdilution according to the CLSI guidelines described in M27-Ed4 ([16]). […] MFC was determined by back-plating drug-treated cultures from MIC broths onto SDA plates. The MFC was defined as the lowest concentration from which no colonies could be cultured.

Candida albicans [2] = assay: MIC/MFC broth microdilution (CLSI); details: Candida albicans SC5314
Protocol: as §1

[3] = test system: Cryptococcus deuterogattii; assay: checkerboard drug interaction (FICI, MICc);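 for all read-outs here: simplified diagonal checkerboard screen pairing antifungal drugs with FPPS inhibitors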; details: C. deuterogattii; for INH FD (MIC-MICc fold decrease): fold decrease of inhibitor MIC
Protocol: (§2) Drug interactions between antifungals and FPPS inhibitors were investigated using a simplified checkerboard diagonal screening method ([45]). […] FICIs were determined according to the Loewe additivity model ([17]).

Cryptococcus neoformans = assay: checkerboard drug interaction (FICI, MICc);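 for all read-outs here: antifungal plus FPPS inhibitor pairs tested against Cryptococcus neoformans by simplified diagonal checkerboard screening, FICI computed under the Loewe additivity model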; details: C. neoformans; for INH FD (MIC-MICc fold decrease): fold decrease of inhibitor MIC
Protocol: as §2

Saccharomyces cerevisiae [4] = assay: checkerboard drug interaction (FICI, MICc);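 for all read-outs here: simplified diagonal checkerboard screen pairing antifungals with FPPS inhibitors, FICI calculated under the Loewe additivity model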; set-up: INH MICc / INH MICc (ITR:INH) / INH MICc (KET:INH) / INH MICc (FLC:INH): unit not given beside the values; details: S. cerevisiae; for INH FD (MIC-MICc fold decrease): fold decrease of inhibitor MIC
Candida glabrata = assay: checkerboard drug interaction (FICI, MICc);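 for all read-outs here: simplified diagonal checkerboard screen pairing antifungals with FPPS inhibitors, FICI calculated under the Loewe additivity model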; details: C. glabrata; for INH FD (MIC-MICc fold decrease): fold decrease of inhibitor MIC
Protocol: as §2

Candida albicans [5] = assay: checkerboard drug interaction (FICI, MICc);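 note: antifungal plus FPPS inhibitor combinations on Candida albicans tested by a simplified diagonal checkerboard screen, with FICI calculated under the Loewe additivity model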; details: C. albicans
Protocol: as §2

[6] = FLC:INH combination, MIC of the inhibitor in combination with FLC
[7] = FLC:INH combination, fold decrease of FLC MIC
[8] = ITR:INH combination, MIC of the inhibitor in combination with ITR
[9] = ITR:INH combination, fold decrease of ITR MIC
[10] = KET:INH combination, MIC of the inhibitor in combination with KET
[11] = KET:INH combination, fold decrease of KET MIC

**Q.** Which results are given for `CCCCCCCCCN1CCC[C@H]1C(=O)N[C@@H](CC(=O)OC)C(=O)OC` [dmPLA9]?
**A.** MFC (Saccharomyces cerevisiae [1]): 32 µg/mL (≈ 83.2 µM); MIC (Saccharomyces cerevisiae [1]): 32 µg/mL (≈ 83.2 µM); MFC (Candida albicans [2]): > 128 µg/mL; MIC (Candida albicans [2]): > 128 µg/mL; FICI ([3]; FLC:INH combination): 3; INH MICc [3, 6]: 128; FLC FD (MIC-MICc fold decrease) [3, 7]: -2; INH FD (MIC-MICc fold decrease) ([3]; FLC:INH combination): 1; FICI ([3]; ITR:INH combination): ≥4; INH MICc [3, 8]: 256; ITR FD (MIC-MICc fold decrease) [3, 9]: -4; INH FD (MIC-MICc fold decrease) ([3]; ITR:INH combination): -2; FICI ([3]; KET:INH combination): 1.5; INH MICc [3, 10]: 128; KET FD (MIC-MICc fold decrease) [3, 11]: 2; INH FD (MIC-MICc fold decrease) ([3]; KET:INH combination): 1; FICI (Cryptococcus neoformans; FLC:INH combination): ≥4; INH MICc (Cryptococcus neoformans; [6]): 128; FLC FD (MIC-MICc fold decrease) (Cryptococcus neoformans; [7]): -4; INH FD (MIC-MICc fold decrease) (Cryptococcus neoformans; FLC:INH combination): -2; FICI (Cryptococcus neoformans; ITR:INH combination): ≥4; INH MICc (Cryptococcus neoformans; [8]): 128; ITR FD (MIC-MICc fold decrease) (Cryptococcus neoformans; [9]): -4; INH FD (MIC-MICc fold decrease) (Cryptococcus neoformans; ITR:INH combination): -2; FICI (Cryptococcus neoformans; KET:INH combination): 3; INH MICc (Cryptococcus neoformans; [10]): 64; KET FD (MIC-MICc fold decrease) (Cryptococcus neoformans; [11]): -2; INH FD (MIC-MICc fold decrease) (Cryptococcus neoformans; KET:INH combination): 1; FICI (Saccharomyces cerevisiae [4]; FLC:INH combination): 2.5; FLC MICc (Saccharomyces cerevisiae [4]; FLC:INH combination, MIC of FLC in combination with the inhibitor): 8; INH MICc (Saccharomyces cerevisiae [4]; [6]): 16; FLC FD (MIC-MICc fold decrease) (Saccharomyces cerevisiae [4]; [7]): -2; INH FD (MIC-MICc fold decrease) (Saccharomyces cerevisiae [4]; FLC:INH combination): 2; FICI (Saccharomyces cerevisiae [4]; ITR:INH combination): 3; ITR MICc (Saccharomyces cerevisiae [4]; ITR:INH combination, MIC of ITR in combination with the inhibitor): 0.5; INH MICc (Saccharomyces cerevisiae [4]; [8]): 32; ITR FD (MIC-MICc fold decrease) (Saccharomyces cerevisiae [4]; [9]): -2; INH FD (MIC-MICc fold decrease) (Saccharomyces cerevisiae [4]; ITR:INH combination): 1; FICI (Saccharomyces cerevisiae [4]; KET:INH combination): 1.06; KET MICc (Saccharomyces cerevisiae [4]; KET:INH combination, MIC of KET in combination with the inhibitor): 2; INH MICc (Saccharomyces cerevisiae [4]; [10]): 2; KET FD (MIC-MICc fold decrease) (Saccharomyces cerevisiae [4]; [11]): 1; INH FD (MIC-MICc fold decrease) (Saccharomyces cerevisiae [4]; KET:INH combination): 16; FICI (Candida glabrata; FLC:INH combination): ≥4; INH MICc (Candida glabrata; [6]): 64; FLC FD (MIC-MICc fold decrease) (Candida glabrata; [7]): -4; INH FD (MIC-MICc fold decrease) (Candida glabrata; FLC:INH combination): 4; FICI (Candida glabrata; ITR:INH combination): 1.5; INH MICc (Candida glabrata; [8]): 8; ITR FD (MIC-MICc fold decrease) (Candida glabrata; [9]): 1; INH FD (MIC-MICc fold decrease) (Candida glabrata; ITR:INH combination): 32; FICI (Candida glabrata; KET:INH combination): 1.5; INH MICc (Candida glabrata; [10]): 8; KET FD (MIC-MICc fold decrease) (Candida glabrata; [11]): 1; INH FD (MIC-MICc fold decrease) (Candida glabrata; KET:INH combination): 32; FICI (Candida albicans [5]; FLC:INH combination): 2.13; INH MICc (Candida albicans [5]; [6]): 16; FLC FD (MIC-MICc fold decrease) (Candida albicans [5]; [7]): -2; INH FD (MIC-MICc fold decrease) (Candida albicans [5]; FLC:INH combination, fold decrease of inhibitor MIC): 8; FICI (Candida albicans [5]; ITR:INH combination): 2.13; INH MICc (Candida albicans [5]; [8]): 16; ITR FD (MIC-MICc fold decrease) (Candida albicans [5]; [9]): -2
